Experimental data: BindingDB's records for doi:10.1021/jm00147a033 (1985)

Experiments:
[1] = Compound was evaluated for reversible inhibition of hydrolysis acetylcholine by acetylcholinesterase and represented as KI(competitive)
[2] = Compound was evaluated for reversible inhibition of hydrolysis acetylcholine by acetylcholinesterase and represented as KI(noncompetitive)
[3] = Compound was evaluated for reversible inhibition of hydrolysis of acetylcholine by acetylcholinesterase and represented as KI(competitive)
[4] = Compound was evaluated for reversible inhibition of hydrolysis acetylcholine by acetylcholinesterase and represented as KI(competitive); remark: listed apart in the source

`CS(=O)(=O)CCO` [2-Methanesulfonyl-ethanol] showed a Ki [1] of 8.7 mM and a Ki [2] of 100 mM.
`C[Si](C)(C)CCO` [2-Trimethylsilanyl-ethanol] gave a Ki [1] of 3.3 mM.
With `C[N+](C)(C)CCO` [2-hydroxy-N,N,N-trimethylethanaminium] the Ki [2] was 7.6 mM.
For `CC(C)(C)CCO` [3,3-Dimethyl-butan-1-ol], the Ki [2] was 19 mM.
With `CC(=O)CCC[N+](C)(C)[O-]` [5-dimethylamino-2-pentanone-N-oxide] the Ki [3] was 14 mM.
In the case of `CS(C)(I)CCO` [(2-Hydroxy-ethyl)-dimethyl-sulfonium; iodide], the Ki [2] is reported as 13 mM.
With `CC(=O)OCCS(C)(=O)=O` [Acetic acid 2-methanesulfonyl-ethyl ester] the Ki [4] was 6.4 mM.
`C[S+](C)C` [Trimethyl-sulfonium; iodide] showed a Ki [1] of 2 mM and a Ki [2] of 7.2 mM.
